Measured values taken from patent publication US8735443B2, “Method of treating diabetes-related vascular complications” (Kuwait University, priority 2008, dated 2014).

Columns and labels:
TNF-α = experiment: Plasma TNF-α ELISA; type: in vivo, rat; settings: GK rats, LA chronic therapy
Procedure: Plasma TNF-α levels from various experimental groups were determined using a rat TNF-α ELISA kit, and tissue protein content was determined using bovine serum albumin as a standard.

NF-κB = NF-κB expression by western blotting, HEK-499; type: cell-based; settings: HEK-499 cells exposed to α-lipoic acid
Description: Alpha-lipoic acid increased HEK-499 cells, which were engineered to be resistant to chemotherapies and radiotherapies by depleting Raf Kinase inhibitory protein resistance to lethal doses of cisplatin, a chemical used in cancer therapy.

ICAM-1 = experiment: Aortic mRNA expression by QRT-PCR, ICAM-1; type: in vivo, rat; settings: GK rats, LA therapy
Procedure: An expression of a number of inflammatory markers, including IL-6 and ICAM-1, were measured in control, diabetic and LA-treated diabetic vessels. The results confirmed marked elevation in the vascular expression of both […] and ICAM-1 during diabetes, as shown in FIGS. 11A and 11B. […] Aortic expression of IL-6 is shown in FIG. 11A and aortic expression of intracellular adhesion molecule (ICAM-1) is shown in FIG. 11B. Both were determined using QRT-PCR based techniques.

aortic tissues = experiment: Apoptotic cell death ELISA, cytoplasmic histone-associated DNA fragments in aorta; type: in vivo, rat
Procedure: With regard to the assessment of apoptotic cell death using enzyme-linked immuno-absorbent-based assay, aortic tissues derived from control, GK and LA-treated GK rats were lysed and cytoplasmic histone-associated DNA fragments, indicating apoptotic cell death were determined by the Cell Death ELISA® plus kit. Data are reported as arbitrary optical density units normalized to protein concentration.

diabetic fibroblasts = experiment: Inflammatory cytokine transcription in fibroblasts, RT-PCR; type: cell-based, rat; settings: lipoic acid 500 μM, Nrf2-dependent
Description: To determine the effect of α-lipoic acid on isolated cells from normal and diabetic rats, primary rat fibroblasts were derived from dorsal skin biopsies performed on four diabetic Coto Kakizaki rats (DFs) and four age-matched (12-14 months) and sex-matched (female) Wistar control rats (CFs). After sterilization in povidine solution, the rat skin was washed in sterile water and rinsed in 70% ethanol in phosphate-buffered saline (PBS). The epidermis and dermis were separated following overnight incubation in 0.25% Trypsin/EDTA at 4° C. Samples were washed, diced and digested for thirty minutes at 37° C. in collagenase type I (250 U/ml) dissolved in Dulbecco's modified Eagle medium (DMEM; Invitrogen) containing penicillin (100 U/ml), 2 mM L-glutamine and 26 mM HEPES. After collagenase treatment, the cells were dislodged, centrifuged and resuspended in medium supplemented with 10% fetal bovine serum. […]
With regard to cytokine transcription levels, Total RNA was isolated from cultured fibroblasts using Trizol reagent (Invitrogen) and 1 μg from each sample was reverse transcribed for 1 hr at 37° C. using the High Capacity cDNA Reverse Transcription Kit. Real-time quantitative RT-PCR was performed with the TaqMan Gene Expression Assay and was normalized against […] using an ABI 7900 Real-time PCR System (Applied Biosystems). […]

aortic tissue = experiment: Aortic superoxide production, lucigenin-enhanced chemiluminescence; type: in vivo, rat; settings: GK rats, LA 50 mg/kg i.p. daily for four weeks
Procedure: In the study, with regard to measurement of vascular superoxide anion formation, O2^− concentration in aortic tissue was determined using a lucigenin-enhanced chemiluminescence method, and the resulting data were further confirmed by a cytochrome c-based technique. Segments of the thoracic aorta were placed into 2 ml Krebs-Henseleit buffer (KHB, pH 7.4), and prewarmed to 37° C. for one hour. Immediately before measurement, rings were transferred to scintillation vials containing KHB with 5 μmol/L lucigenin and the O2^− generated chemiluminescence was recorded for five minutes with a scintillation counter. The amount of O2^− produced was quantified using a standard curve of O2^− generation by xanthine/xanthine oxidase and the data are expressed as nmol per min, per mg, of wet weight. In some experiments, vessels were denuded of endothelium by gentle rubbing of the luminal surface, whereas in others, N^ω-nitro-L-arginine methyl ester (L-NAME) 0.1 mM, diphenylene iodonium 0.1 mM, or apocynin 3 mM were added 60 min before determining O2^− generation.

NAD(P)H oxidase = NAD(P)H oxidase activity in aortic homogenates (lucigenin photoemission); type: biochemical, rat; settings: GK rats after LA therapy
Procedure: Determination of NAD(P)H oxidase activity in the aorta was determined based on superoxide induced lucigenin photoemission. Enzyme assays were carried out in a final volume of 1 ml. containing (in mM) 50 phosphate buffer; pH 7.0, 1 EGTA, 150 sucrose, 0.5 lucigenin, 0.1 NAD(P)H and tissue homogenate. Enzyme reactions were initiated with the addition of lucigenin. Photoemission, expressed in terms of relative light units (RLU), was measured every 5 min. using a luminometer. All assays were carried out in the dark at room temperature.

[1] = test system: diabetic fibroblasts (DFs); experiment: LDH release assay (necrotic cell death) in fibroblasts; type: cell-based, rat; settings: lipoic acid 500 μM, Nrf2-dependent
Description: (§1) To determine the effect of α-lipoic acid on isolated cells from normal and diabetic rats, primary rat fibroblasts were derived from dorsal skin biopsies performed on four diabetic Coto Kakizaki rats (DFs) and four age-matched (12-14 months) and sex-matched (female) Wistar control rats (CFs). After sterilization in povidine solution, the rat skin was washed in sterile water and rinsed in 70% ethanol in phosphate-buffered saline (PBS). The epidermis and dermis were separated following overnight incubation in 0.25% Trypsin/EDTA at 4° C. Samples were washed, diced and digested for thirty minutes at 37° C. in collagenase type I (250 U/ml) dissolved in Dulbecco's modified Eagle medium (DMEM; Invitrogen) containing penicillin (100 U/ml), 2 mM L-glutamine and 26 mM HEPES. After collagenase treatment, the cells were dislodged, centrifuged and resuspended in medium supplemented with 10% fetal bovine serum. The cells were grown under standard conditions, and the medium was changed every three to four days. Control and diabetic fibroblasts were grown under normo-glycemic conditions (5.5 mM glucose) and used in experiments at passage 3 to 5.
Fibroblasts were seeded at 1×10^4 cells/well on a 96-well plate. […] Quantification of cell viability was assessed using a Cell Counting Kit-8 (Dojindo, Kumamoto, Japan). […]

[2] = test system: diabetic fibroblasts (DFs); experiment: Cell viability after hydrogen peroxide (Cell Counting Kit-8), diabetic fibroblasts; type: cell-based, rat; settings: diabetic fibroblasts, lipoic acid 500 μM, Nrf2-dependent
Description: as §1
Fibroblasts were seeded at 1×10^4 cells/well on a 96-well plate. After a 24 hour incubation period, the cells were exposed to various concentrations of HP in serum-free medium at 37° C. for 2 hours [lactate dehydrogenase (LDH), a marker for necrotic cell death], or for 16 hours (cell viability). Quantification of cell viability was assessed using a Cell Counting Kit-8 (Dojindo, Kumamoto, Japan). The values obtained were normalized to the vehicle-treated cells. To measure the rate of necrotic cell death, an LDH release assay was performed using a CytoTox-ONE Homogeneous Membrane Integrity Assay kit (Promega). Expression of Nrf2 was inhibited by small-interfering RNA (siRNA) oligonucleotides. The sequences were designed and synthesized by Qiagen. The best silencing efficiency was obtained by incubating 2.0×10^5 cells/well in a 6-well plate with complexes formed by 5 nM siRNA (1 μl) and 9 μL of HiPerfect transfection reagent (Qiagen) dissolved in 90 μl medium, according to the manufacturer's instructions. The transfection was achieved by adding 0.9 ml of medium to the seeded cells followed by 100 μl of siRNA/HiPerfect complex. Knock-out efficiency was verified by real-time PCR and Western blot. Twenty-four hours later, 1 ml of fresh medium was added; 48 hr after transfection the cells were exposed to either vehicle or lipoic acid at a concentration of 500 μM.

Structure (SMILES): O=C(O)CCCCC1CCSS1 (stereo not drawn) [LA, alpha-lipoic acid]
- diabetes related up-regulation of TNF-α protein (plasma) (TNF-α): Reversal
- NF-κB expression (NF-κB): significant increase
- diabetic vascular proinflammatory phenotype, aortic expression of ICAM-1 (ICAM-1): partially reversed
- reduction of DNA fragmentation rate in diabetic arteries (aortic tissues; chronic LA treatment, GK rats): 42%
- LA-mediated antiapoptotic effect after discontinuation (aortic tissues; two weeks after discontinuation of therapy): markedly reduced
- transcription of inflammatory cytokines in diabetic fibroblasts (diabetic fibroblasts): decreases
- diabetes-mediated increase in aortic superoxide production (aortic tissue): suppression
- NAD(P)H oxidase driven O2− generation in homogenates of diabetic aorta (NAD(P)H oxidase): significantly attenuated
- LDH release into cell culture media (necrotic cell death) in response to HP [1]: reduces cell death
- protection of cell viability from hydrogen peroxide [2]: protected
